Data on twelve compounds can be found in BindingDB's records for doi:10.7270/Q2CZ35MZ (Nmmlsc, 2009).

The target of the first experiment is T1, Bcl-2-like protein 2 (Homo sapiens, UniProt Q92843).
T1 sequence (Q92843 whole entry): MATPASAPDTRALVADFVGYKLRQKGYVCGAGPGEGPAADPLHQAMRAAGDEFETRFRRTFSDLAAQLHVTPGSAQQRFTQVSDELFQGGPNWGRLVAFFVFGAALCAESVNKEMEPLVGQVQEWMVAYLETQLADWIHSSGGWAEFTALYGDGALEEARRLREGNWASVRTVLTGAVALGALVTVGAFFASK
Put plainly: inhibitors of Bim binding to Bcl-W, confirmation, biochemical, multiplexed, bead-based flow cytometry, HTS hits (AID 2081).
Details: not given
(In general: Flow cytometry measures light scatter and fluorescence of single cells or particles in a stream.)
`CC(=O)OCCCNc1cc(Sc2nc3ccccc3s2)c2nonc2c1[N+](=O)[O-]` [MLS000521052]: the EC50 – broadly, the concentration at which the effect is half-maximal – amounted to 0.62 µM. On the same count and under the same terms, then `Cc1nnc(Sc2cc(NCCO)c([N+](=O)[O-])c3nonc23)s1` [2-[[7-[(5-methyl-1,3,4-thiadiazol-2-yl)thio]-4-nitro-2,1,3-benzoxadiazol-5-yl]amino]ethanol], with 1.31 µM; and `COc1ccccc1NC1=C(NC(C)=O)C(=O)c2ccccc2C1=O` [N-[3-(2-methoxyanilino)-1,4-dioxonaphthalen-2-yl]acetamide], with 3.35 µM; and `Cc1cc2nn(-c3cccc4ccccc34)nc2cc1N` [SMR000076237], with 2.64 µM.

The same experiment, now with this note: inactive by the depositor's call.
On to `Oc1ccc(NCc2ccccc2OCc2ccccc2)cc1` [SMR000231540], for which the EC50 stood at 20.5 µM.

Regarding `CNC1CCC(Br)CC(C(=O)C=Cc2cccc(OC)c2OC)C1=O` (configuration not stated) [4-bromo-2-[(E)-3-(2,3-dimethoxyphenyl)-1-oxoprop-2-enyl]-7-(methylamino)-1-cycloheptanone], the EC50 was 47.3 µM. Still for that read-out and setting: the figure for `O=C(/C=C/c1ccc(-c2ccccc2[N+](=O)[O-])o1)c1ccccc1` is 21.2 µM. The same measure, in the same setting: the figure for `O=C(NCc1ccccc1)c1ccc2nc(-c3ccco3)c(-c3ccco3)nc2c1` [2,3-bis(furan-2-yl)-N-(phenylmethyl)quinoxaline-6-carboxamide] is 11.4 µM; for `COc1cc(/N=C2\SSNC2Cl)c(OC)cc1Cl` (configuration not stated) [4-chloro-N-(4-chloro-2,5-dimethoxyphenyl)-5-dithiazolidinimine] it is 23 µM; for `COc1ccc(CCNC(=O)c2ccc3nc(-c4ccco4)c(-c4ccco4)nc3c2)cc1OC` [N-[2-(3,4-dimethoxyphenyl)ethyl]-2,3-di-2-furylquinoxaline-6-carboxamide] it is 20.8 µM. Same read-out and setting: then `Clc1nc(NCc2cccnc2)nc(N2CCOCC2)n1` [MLS000121154], with 15.5 µM.

`CCOc1ccccc1CNc1ccc(O)cc1`: a half-maximal response (EC50) required 26 µM.
